Test results taken from US20040219112A1, “Method of whitening teeth, tooth whitening composition and tooth whitening set” (priority 2001, published 2004).

What was measured:
[1] = Whitening of extracted human tooth enclosed in absorbent cotton impregnated with liquid compound (100%), L*a*b* (CIE) whiteness; details: compound conc. 100%; for Effect (2): prolonged effect, whiteness (Δ|L|+Δ|b|) of the tooth: measured after immersion in water (10 ml, 37° C.) for 1 hour; for Effect (1): whiteness (Δ|L|+Δ|b|) of the tooth: measured immediately after immersion in the compound for 1 hour at 37° C.; for Result (prolonged effect rating): rating of prolonged effect after 1 hour in water
Experimental: (§1) An experiment was conducted as follows with an extracted human tooth which had previously been examined for L*a*b* values (CIE). The tooth was enclosed in absorbent cotton impregnated with a liquid compound (in 100% concentration) shown below, and the resulting object was allowed to stand at 37° C. for 1 hour in a closed glass bottle. The tooth was examined again for L*a*b* values (CIE). The ΔL and Δb values measured before and after treatment were used to calculate the whiteness (Δ|L|+Δ|b|) of the tooth, which is a measure of the effect (1).
(§2) The tooth which had been processed as mentioned above was again allowed to stand at 37° C. for 1 hour in a closed glass bottle containing 10 ml of water at 37° C. Then, the tooth was examined again for L*a*b* values (CIE). The ΔL and Δb values measured before and after treatment were used to calculate the whiteness (Δ|L|+Δ|b|) of the tooth, which is a measure of the prolonged effect (2).

[2] = Whitening of extracted human tooth enclosed in PP non-woven sheet coated with gel of 50% whitening compound, L*a*b* (CIE) whiteness; set-up: key to Effect (3): whiteness (Δ|L|+Δ|b|) of the tooth / Effect (4): prolonged effect, whiteness (Δ|L|+Δ|b|) of the tooth: whiteness = Δ|L|+Δ|b| (CIE L*a*b*), change before vs after treatment; details: gel of 50% compound; for Effect (4): prolonged effect, whiteness (Δ|L|+Δ|b|) of the tooth / Effect (3): whiteness (Δ|L|+Δ|b|) of the tooth: 0.5% jellan gum, 49.5% water; for Effect (4): prolonged effect, whiteness (Δ|L|+Δ|b|) of the tooth: measured after immersion in water (10 ml, 37° C.) for 1 hour; for Effect (3): whiteness (Δ|L|+Δ|b|) of the tooth: measured immediately after 1 hour at 37° C.; for Result (prolonged effect rating): rating of prolonged effect after 1 hour in water
Experimental: as §1, with “a sheet of non-woven fabric of PP coated” for “absorbent cotton impregnated”, “gel composed of 50% of the whitening” for “liquid”, “specified” for “(in 100% concentration) shown”, “below, 0.5% of jellan gum, and 49.5% of water,” for “below,”, “(3).” for “(1).”
as §2, with “(4).” for “(2).”

Molecule	Effect (2): prolonged effect, whiteness (Δ|L|+Δ|b|) of the tooth [1]	Effect (1): whiteness (Δ|L|+Δ|b|) of the tooth [1]	Result (prolonged effect rating) [1]	Effect (4): prolonged effect, whiteness (Δ|L|+Δ|b|) of the tooth [2]	Effect (3): whiteness (Δ|L|+Δ|b|) of the tooth [2]	Result (prolonged effect rating) [2]
CC(O)CO (stereo not drawn) [Propylene glycol]	2.8	8.4	⊚ (⊚ denotes a significant prolonged effect with a value larger than 1)	1.0	1.0	⊚ (⊚ denotes a significant prolonged effect with a value larger than 1)
CC(O)CCO (stereo not drawn) [1,3-butylene glycol]	5.6	11.3	⊚ (⊚ denotes a significant prolonged effect with a value larger than 1)	0.5	0.9	◯ (◯ denotes a prolonged effect with a value larger than 0.5)
Polyethylene glycol #600 [PEG #600]	0.6	12.0	◯ (◯ denotes a prolonged effect with a value larger than 0.5)	0.8	0.7	◯ (◯ denotes a prolonged effect with a value larger than 0.5)
PEG #300	3.7	10.7	⊚ (⊚ denotes a significant prolonged effect with a value larger than 1)	0.8	1.8	◯ (◯ denotes a prolonged effect with a value larger than 0.5)
Polyethylene glycol #200 [PEG #200]	4.8	12.5	⊚ (⊚ denotes a significant prolonged effect with a value larger than 1)	0.9	0.6	◯ (◯ denotes a prolonged effect with a value larger than 0.5)
CC(C)O [Isopropyl alcohol]	8.3	15.8	⊚ (⊚ denotes a significant prolonged effect with a value larger than 1)	0.5	1.1	◯ (◯ denotes a prolonged effect with a value larger than 0.5)
CCO [Ethanol]	3.0	12.8	⊚ (⊚ denotes a significant prolonged effect with a value larger than 1)	1.9	1.5	⊚ (⊚ denotes a significant prolonged effect with a value larger than 1)
OCCOCCO [Diethylene glycol]	2.6	14.4	⊚ (⊚ denotes a significant prolonged effect with a value larger than 1)	1.1	1.3	⊚ (⊚ denotes a significant prolonged effect with a value larger than 1)
Polyethylene glycol #400 [PEG #400]	1.5	8.1	⊚ (⊚ denotes a significant prolonged effect with a value larger than 1)	0.6	0.7	◯ (◯ denotes a prolonged effect with a value larger than 0.5)
OCCO [Ethylene glycol]	2.6	9.3	⊚ (⊚ denotes a significant prolonged effect with a value larger than 1)	0.7	1.6	◯ (◯ denotes a prolonged effect with a value larger than 0.5)
